Test results reported in patent EP4741386A1 (Jiangsu Yahong Meditech Co., Ltd., priority 2023, dated 2025).

Key:
MDA-MB-436 = assay: CTG experiment for cell viability (CellTiter-Glo, 96-well plate, 7 days); format: cell-based; settings: Homo sapiens, MDA-MB-436, 168 h, MDA-MB-436 cells, 7 days culture with compound
Outline: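 Viability was read by CellTiter-Glo luminescence after 10 min at room temperature, once the compound-containing medium had been replaced with PBS. Before that, MDA-MB-436 cells grown in DMEM were exposed to compounds for 7 days at 37°C. Curve fitting followed the enzyme assay method.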

[1] = biological target: T1, Recombinant human His6-USP1/His6-UAF1 complex protein (Homo sapiens, UniProt O94782); assay: In vitro inhibitory activity against USP1 (Ubiquitin Rhodamine 110 fluorescence detection, 384-well plate); format: biochemical; settings: Ub-Rho substrate, 1 hour pre-incubation, read after 30 minutes
T1 construct: His6; purchased R&D E-568-050
Outline: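 Compounds, kept as 50 mM DMSO stocks, were acoustically dispensed into modified Tris buffer. Inhibition of recombinant human His6-USP1/His6-UAF1 was read by fluorescence from cleavage of Ub-Rho110 substrate.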

T1 sequence (O94782 whole entry): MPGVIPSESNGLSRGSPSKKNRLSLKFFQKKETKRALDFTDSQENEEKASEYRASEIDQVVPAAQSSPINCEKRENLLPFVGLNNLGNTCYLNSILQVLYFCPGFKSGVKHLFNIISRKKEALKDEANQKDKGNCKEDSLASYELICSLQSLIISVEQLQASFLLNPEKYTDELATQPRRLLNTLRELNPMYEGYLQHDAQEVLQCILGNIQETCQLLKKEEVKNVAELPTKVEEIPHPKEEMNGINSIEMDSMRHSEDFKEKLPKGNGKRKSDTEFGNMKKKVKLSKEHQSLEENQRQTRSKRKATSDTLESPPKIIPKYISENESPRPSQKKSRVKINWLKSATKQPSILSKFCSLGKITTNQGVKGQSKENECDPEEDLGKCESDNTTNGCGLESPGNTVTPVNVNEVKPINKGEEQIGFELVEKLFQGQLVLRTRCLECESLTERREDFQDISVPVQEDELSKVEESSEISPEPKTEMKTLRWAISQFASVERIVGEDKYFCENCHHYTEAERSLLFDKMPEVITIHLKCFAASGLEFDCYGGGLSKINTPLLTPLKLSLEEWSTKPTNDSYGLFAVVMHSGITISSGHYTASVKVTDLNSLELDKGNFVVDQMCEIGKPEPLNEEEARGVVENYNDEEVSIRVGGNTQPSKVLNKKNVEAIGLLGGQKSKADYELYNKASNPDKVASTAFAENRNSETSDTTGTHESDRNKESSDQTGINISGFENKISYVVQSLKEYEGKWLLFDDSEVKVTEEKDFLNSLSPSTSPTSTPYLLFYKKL
T1 sequence (Q8TAF3 whole entry partner): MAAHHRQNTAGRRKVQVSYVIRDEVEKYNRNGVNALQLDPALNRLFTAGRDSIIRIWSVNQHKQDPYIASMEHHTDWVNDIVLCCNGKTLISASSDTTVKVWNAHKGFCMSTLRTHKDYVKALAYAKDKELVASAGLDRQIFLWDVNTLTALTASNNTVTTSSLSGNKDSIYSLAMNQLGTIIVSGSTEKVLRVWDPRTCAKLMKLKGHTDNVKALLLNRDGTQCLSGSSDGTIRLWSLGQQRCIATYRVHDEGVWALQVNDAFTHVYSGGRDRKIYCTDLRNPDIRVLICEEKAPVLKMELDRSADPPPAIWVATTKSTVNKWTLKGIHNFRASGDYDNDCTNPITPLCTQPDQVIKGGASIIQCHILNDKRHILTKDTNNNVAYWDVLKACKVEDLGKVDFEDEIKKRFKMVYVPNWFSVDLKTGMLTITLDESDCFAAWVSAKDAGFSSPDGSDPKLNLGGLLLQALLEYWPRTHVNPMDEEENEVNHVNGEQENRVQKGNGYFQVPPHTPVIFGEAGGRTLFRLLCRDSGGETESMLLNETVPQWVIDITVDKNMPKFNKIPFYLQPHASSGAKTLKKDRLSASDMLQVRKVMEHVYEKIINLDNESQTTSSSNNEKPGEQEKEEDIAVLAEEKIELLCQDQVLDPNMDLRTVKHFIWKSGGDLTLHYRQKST

SMILES | IC50 (MDA-MB-436) | IC50 [1]
Cc1noc(C(C)C)c1-c1ncc(OC(F)F)c(NCc2ccc(-c3nc(C(F)(F)F)cn3C)cc2)n1 [Example 190, 5-(Difluoromethoxy)-2-(5-isopropyl-3-methylisoxazol-4-yl)-N-(4-(1-methyl-4-(trifluoromethyl)-1H-imidazol-2-yl)benzyl)pyrimidin-4-amine] | 0.339 µM | 0.033 µM
COc1cnc(-c2c(Cl)cnn2C2CC2)nc1N(C)Cc1ccc(-c2nc(C(F)(F)F)cn2C)cc1 [Example 191, 2-(4-Chloro-1-cyclopropyl-1H-pyrazol-5-yl)-5-methoxy-N-methyl-N-(4-(1-methyl-4-(trifluoromethyl)-1H-imidazol-2-yl)benzyl)pyrimidin-4-amine] | 0.0107 µM | 0.0043 µM
COc1cnc(-c2c(Cl)cnn2C2CC2)nc1NCc1ccc(-c2nc(C(F)(F)F)cn2C)cc1 [Example 192, 2-(4-Chloro-1-cyclopropyl-1H-pyrazol-5-yl)-5-methoxy-N-(4-(1-methyl-4-(trifluoromethyl)-1H-imidazol-2-yl)benzyl)pyrimidin-4-amine] | 0.0204 µM | 0.0038 µM
COc1cnc(-c2cncnc2C2CC2)nc1NCc1ccc(-c2nc(C(F)(F)F)cn2C)cc1 [Example 194, 4'-Cyclopropyl-5-methoxy-N-(4-(1-methyl-4-(trifluoromethyl)-1H-imidazol-2-yl)benzyl)-[2,5'-bipyrimidin]-4-amine] | 0.0584 µM | 0.051 µM
Cn1cc(C(F)(F)F)nc1-c1ccc(CNc2nc(-c3cncnc3C3CC3)nc3ccoc23)cc1 [Example 196, 2-(4-Cyclopropylpyrimidin-5-yl)-N-(4-(1-methyl-4-(trifluoromethyl)-1H-imidazol-2-yl)benzyl)furo[3,2-d]pyrimidin-4-amine] | 0.0821 µM | 0.012 µM
COc1cnc(-c2c(C)cnn2C2CC2)nc1N(C)Cc1ccc(-c2nc(C(F)(F)F)cn2C)cc1 [Example 198, 2-(1-Cyclopropyl-4-methyl-1H-pyrazol-5-yl)-5-methoxy-N-methyl-N-(4-(1-methyl-4-(trifluoromethyl)-1H-imidazol-2-yl)benzyl)pyrimidin-4-amine] | 0.0056 µM | 0.0032 µM
COc1cnc(-c2c(C)cnn2C2CC2)nc1NCc1ccc(-c2nc(C(F)(F)F)cn2C)cc1 [Example 199, 2-(1-Cyclopropyl-4-methyl-1H-pyrazol-5-yl)-5-methoxy-N-(4-(1-methyl-4-(trifluoromethyl)-1H-imidazol-2-yl)benzyl)pyrimidin-4-amine] | 0.0287 µM | 0.0056 µM
COc1cnc(-c2c(C)cnn2C(C)C)nc1N(C)Cc1ccc(-c2nc(C(F)(F)F)cn2C)cc1 [Example 200, 2-(1-Isopropyl-4-methyl-1H-pyrazol-5-yl)-5-methoxy-N-methyl-N-(4-(1-methyl-4-(trifluoromethyl)-1H-imidazol-2-yl)benzyl)pyrimidin-4-amine] | 0.0028 µM | 0.0028 µM
COc1cnc(-c2c(C)cnn2C(C)C)nc1N(C)Cc1ccc(-n2nc(C(F)(F)F)cc2C)cc1 [Example 201, 2-(1-Isopropyl-4-methyl-1H-pyrazol-5-yl)-5-methoxy-N-methyl-N-(4-(5-methyl-3-(trifluoromethyl)-1H-pyrazol-1-yl)benzyl)pyrimidin-4-amine] | 0.0405 µM | 0.012 µM
COc1cnc(-c2c(C)cnn2C(C)C)nc1NCc1ccc(-c2nc(C(F)(F)F)cn2C)cc1 [Example 202, 2-(1-Isopropyl-4-methyl-1H-pyrazol-5-yl)-5-methoxy-N-(4-(1-methyl-4-(trifluoromethyl)-1H-imidazol-2-yl)benzyl)pyrimidin-4-amine] | 0.0159 µM | 0.003 µM
C#Cc1cnc(-c2c(C)cnn2C(C)C)nc1NCc1ccc(-c2nc(C(F)(F)F)cn2C)cc1 [Example 203, 5-Ethynyl-2-(1-isopropyl-4-methyl-1H-pyrazol-5-yl)-N-(4-(1-methyl-4-(trifluoromethyl)-1H-imidazol-2-vl)benzyl)pyrimidin-4-amine] | 0.0033 µM | 0.0014 µM
COc1cnc(-c2c(OC)ncnc2C2CC2)nc1N(O)Cc1ccc(-c2nc(C(F)(F)F)cn2C)cc1 [Example 204, N-(4'-cyclopropyl-5,6'-dimethoxy-[2,5'-bipyrimidin]-4-yl)-N-(4-(1-methyl-4-(trifluoromethyl)-1H-imidazol-2-yl)benzyl)hydroxylamine] | 0.0157 µM | 0.025 µM
COc1cnc(-c2c(OC)ncnc2C2CC2)nc1N(C)CC12C3C4C1C1C2C3C41c1nc(C(F)(F)F)cn1C (stereo not shown) [Example 207, 2-(4-cyclopropyl-6-methoxy-pyrimidin-5-yl)-5-methoxy-N-methyl-N-[[4-[1-methyl-4-(trifluoromethyl)imidazol-2-yl]cuban-1-yl]methyl]pyrimidin-4-amine] | 0.0058 µM | 0.0035 µM
COc1cnc(-c2c(Cl)cnn2C(C)C)nc1NCC12CCC(c3nc(C(F)(F)F)cn3C)(CC1)OC2 [Example 209, 2-(4-chloro-1-isopropyl-1H-pyrazol-5-yl)-5-methoxy-N-((1-(1-methyl-4-(trifluoromethyl)-1H-imidazol-2-yl)-2-oxabicyclo[2.2.2]octan-4-yl)methyl)pyrimidin-4-amine] | 0.0316 µM | 0.0016 µM
COc1cnc(-c2c(OC)ncnc2C2CC2)nc1NCC12CCC(c3nc(C(F)(F)F)cn3C)(CC1)OC2 [Example 210] | 0.169 µM | 0.085 µM
COc1cnc(-c2c(OC)ncnc2C2CC2)nc1NCC12C3C4C1C1C2C3C41c1nc(C(F)(F)F)cn1C (stereo not shown) [Example 215] | 0.0087 µM | 0.0022 µM
COc1cnc(-c2c(OC)ncnc2C2CC2)nc1NCC12C3C4C1C1C2C3C41c1nc(C(F)(F)F)cn1C1CC1 (stereo not shown) [Example 216, 4'-cyclopropyl-N-((4-(1-cyclopropyl-4-(trifluoromethyl)-1H-imidazol-2-yl)cuban-1-yl)methyl)-5,6'-dimethoxy-[2,5'-bipyrimidin]-4-amine] | 0.0027 µM | 0.0014 µM

The next lines start with the values.

IC50 (MDA-MB-436) | IC50 [1] | SMILES
0.0003 µM | 0.0027 µM | [2H]C([2H])([2H])N(c1nc(-c2c(OC)ncnc2C2CC2)ncc1OC)C(C)c1ccc(-c2nc(C(F)(F)F)cn2C)cc1 (stereo not shown) [Example S3, 4'-Cyclopropyl-5,6'-dimethoxy-N-(methyl-D3)-N-(1-(4-(1-methyl-4-(trifluoromethyl)-1 H-imidazol-2-yl)phenyl)ethyl)-[2,5'-bipyrimidin]-4-amine]
0.0023 µM | 0.0049 µM | [2H]C([2H])([2H])N(CC12CCC(c3nc(C(F)(F)F)cn3C)(CC1)CC2)c1nc(-c2c(OC)ncnc2C2CC2)ncc1OC [Example S4, 4'-Cyclopropyl-5,6'-dimethoxy-N-(methyl-d3)-N-((4-(1-methyl-4-(trifluoromethyl)-1H-imidazol-2-yl)bicyclo[2.2.2]oct-1-yl)methyl)-[2,5'-bipyrimidin]-4-amine]
0.0202 µM | 0.014 µM | [2H]C([2H])([2H])Oc1ncnc(C2CC2)c1-c1ncc(OC)c(NCC23CCC(c4nc(C(F)(F)F)cn4C)(CC2)CC3)n1 [Example S5, 4'-Cyclopropyl-5-methoxy-6'-(methoxy-D3)-N-((4-(1-methyl-4-(trifluoromethyl)-1H-imidazol-2-yl)bicyclo[2.2.2]oct-1-yl)methyl)-[2,5'-bipyrimidin]-4-amine]
0.0171 µM | 0.012 µM | COc1cnc(-c2c(OC)ncnc2C2CC2)nc1NCc1ccc(-c2nc(C(F)(F)F)cn2CC(F)(F)F)cc1 [Example S7, 4'-Cyclopropyl-56'-dimethoxy-N-(4-(1-(2,2,2-trifluoroethyl)-4-(trifluoromethyl)-1H-imidazol-2-yl)benzyl)-[2,5'-bipyrimidin]-4-amine]
0.168 µM | 0.035 µM | COc1cnc(-c2c(Cl)cnn2C(C)C)nc1N(C)CC12CCC(c3nc(C(F)(F)F)cn3C3CCC3)(CC1)OC2 [Example S12, 2-(4-Chloro-1-isopropyl-1H-pyrazol-5-yl)-N-((1-(1-cyclobutyl-4-(trifluoromethyl)-1H-imidazol-2-yl)-2-oxabicyclo[2.2.2]oct-4-yl)methyl)-5-methoxy-N-methylpyrimidin-4-amine]
0.0608 µM | 0.013 µM | COc1cnc(-c2c(Cl)cnn2C(C)C)nc1N(C)CC12CCC(c3nc(C(F)(F)F)cn3C(C)C)(CC1)OC2 [Example S13, 2-(4-Chloro-1-isopropyl-1H-pyrazol-5-yl)-N-((1-(1-isopropyl-4-(trifluoromethyl)-1H-imidazol-2-yl)-2-oxabicyclo[2.2.2]oct-4-yl)methyl)-5-methoxy-N-methylpyrimidin-4-amine]
0.239 µM | 0.091 µM | COc1cnc(-c2c(OC)ncnc2C(F)(F)F)nc1NCC12CCC(c3nc(C(F)(F)F)cn3C(C)C)(CC1)OC2 [Example S15, N-((1-(1-Isopropyl-4-(trifluoromethyl)-1H-imidazol-2-yl)-2-oxabicyclo[2.2.2]oct-4-yl)methyl)-4',5-dimethoxy-6'-(trifluoromethyl)-[2,5'-bipyrimidin]-4-amine]
0.0403 µM | 0.034 µM | COc1cnc(-c2c(OC)ncnc2C2CC2)nc1NCC12CCC(c3nc(C(F)(F)F)cn3C3CCC3)(CC1)OC2 [Example S16, N-((1-(1-Cyclobutyl-4-(trifluoromethyl)-1H-imidazol-2-yl)-2-oxabicyclo[2.2.2]oct-4-yl)methyl)-4'-cyclopropyl-5,6'-dimethoxy-[2,5'-bipyrimidin]-4-amine]
0.0359 µM | 0.0061 µM | COc1cnc(-c2c(Cl)cnn2C(C)C)nc1N(C)CC12CCC(c3nc(C(F)(F)F)cn3C)(CC1)OC2 [Example S17, 2-(4-Chloro-1-isopropyl-1H-pyrazol-5-yl)-5-methoxy-N-methyl-N-((1-(1-methyl-4-(trifluoromethyl)-1H-imidazol-2-yl)-2-oxabicyclo[2.2.2]oct-4-yl)methyl)pyrimidin-4-amine]
